Assay type in all cases: in vivo
The test system of series [1] is Colletotrichum graminicola. Kind of series: Tray seedling test, efficacy of seed treatment against Colletotrichum graminicola. The settings on record: FS100, 30 g ai/100 kg seeds; untreated (% damage) 22%. How it is done: (§1) The seed tested (Amadeo harvest 2008, TKW 331,3) was seeded in trays 20×20×6 cm, with 9 holes for water release in field soil/quartz sand mix (1:1). Two repetitions with 25 kernels each were treated using standard seed treatment techniques. Each tray contained a single isolate of either Fusarium verticillioides G679, Fusarium verticillioides S039/07, Fusarium verticillioides S149/08, Colletotrichum graminicola BF0911 or Colletotrichum graminicola CG-1. The fungi were grown on sterile wheat grains. Thereafter, wheat grains were roughly ground after incubation and dried. For inoculation, either 5 or 15 ml of inoculum were scattered between the seeds at sowing, followed by incubation for 7 days at 10° C., followed by 7 days 24° C./15° C. (day/night period). Plants were evaluated for a) initial emergence (number of plants), b) final emergence (number of plants), c) disease level. Seedlings were classified in 3 categories: low, moderate or sevre necrosis. The disease score was calculated as follows: […]

The test system of another series is Fusarium verticillioides. Kind of series: Tray seedling test, efficacy of seed treatment against Fusarium verticillioides. Conditions: FS100, 30 g ai/100 kg seeds; untreated (% damage) 26%. How it is done:
as §1

The test system of series [2] is corn stalk rot susceptible hybrids. Kind of series: Greenhouse seedling emergence trial for seed safety of treated corn seed. The settings on record: number of plants emerged at day 7, five plants per pot. How it is done:
Seeds treated with chemistry were evaluated for seed safety in greenhouse emergence trials. Seed treatment active ingredients were combined in a slurry mix with colorant, polymer, and water at the recommended rates and allowed to mix thoroughly. Using a Gustafson BMC lab treater the seed batch was deposited in the BMC coater and treatment slurry was injected and allowed to tumble for 35-40 seconds before being ejected into a bulk collection bin and transferred to a paper storage bag. Standard corn stalk rot susceptible hybrids were planted using six pot replicates of five plants per pot. The treatments were randomized in RCBD, blocked by GH watering trays. Planting media consisted of 3.5 inch pots with the following media: US10 soil and 50/50 mix of US10/REDIEARTH. Replicates were placed perpendicular to the greenhouse temperature gradient.
Initial daily emergence counts at spike emergence of first treatment, continued until emergence was complete in untreated control (7-10 days after planting). The final stand was calculated as the number of plants emerged at day 7. The stand AUC was calculated as the area under the emergence curve.

A further series has as its system corn. Kind of series: Field yield trials, seed treatments in non-inoculated soil plots (natural pressure). The settings on record: Acceleron 2013 base; for Yield Trial 1: N=22 locations, control 174.9; for Yield Trial 2: N=24 locations, control 174.4. How it is done: (§2) Field trials were conducted to evaluate seed treatments for efficacy and yield. Field plots contained a single row or up to 4 rows by 20-40 feet. Smallest plot size was a single row by 20 feet. Four replications were typically used. The hybrids selected for the study were typically moderately susceptible to Anthracnose stalk rot, which indicates a susceptibility rating of at least 5-6 on a 9 point scale (1=highly resistant, 9=highly susceptible).
(§3) The typical growth stage for field inoculation was VT/R1 (tasseling/silking). For disease ratings, stalks were surface wounded using implements with needles that either provided shallow scratches on the surface of the stalk (˜1 cm depth) or shallow piercing wounds (˜1 cm depth). Concurrent with surface wounding, a spore suspension of Colletotrichum graminicola (C. graminicola) conidia is sprayed onto wounded area or injected into shallow wounds. The total volume of spore suspension applied was in the range of 1-5 mL. Yield trials were soil inoculated or non-inoculated (natural pressure). For soil inoculation the fungus was grown on sorghum seed and the infested sorghum seed was placed in furrow at planting of the trials.
(§4) Yield was determined in the following manner. The center two rows of the plot were harvested or both rows if it was a two row plot. The weight and percent moisture were recorded for each plot grain sample. The recorded plot weight and % moisture were converted to standardized weight using standard moisture of 15.5%. Each plot was normalized to kg/ha by interpolating plot yield area to hectares. Yield in bushels/acre (bu/A) was determined by interpolating plot yield area to acre and conversion to bu/A using a standard corn bushel weight of 56 lb.
All seeds, including control, were treated with Acceleron 2013 commercial seed treatment (disease+insect control) as a base. N=22 locations.
All seeds, including control, were treated with Acceleron 2013 commercial seed treatment (disease+insect control) as a base. N=24 locations.

For series [3], the system named is Colletotrichum graminicola. Kind of series: Field yield trial, seed treatments in inoculated soil plots. The settings on record: Acceleron 2013 base, N=10 locations, control 164.4. How it is done:
as §2, §3, §4
All seeds, including control, were treated with Acceleron 2013 commercial seed treatment (disease control+insect control) as a base. N=10 locations.

In series [4] the test system is Colletotrichum graminicola. The series is described as follows: Field trial, Anthracnose stalk rot disease severity after stalk wounding and inoculation. The settings on record: 60 g ai/100 kg seed; Acceleron 2013 base; N=3 locations; control (surface wounding) 2.9. How it is done:
Field trials were conducted to evaluate seed treatments for efficacy and yield. Field plots contained a single row or up to 4 rows by 20-40 feet. Smallest plot size was a single row by 20 feet. Four replications were typically used. The hybrids selected for the study were typically moderately susceptible to Anthracnose stalk rot, which indicates a susceptibility rating of at least 5-6 on a 9 point scale (1=highly resistant, 9=highly susceptible). […] The typical growth stage for field inoculation was […]). For disease ratings, stalks were surface wounded using implements with needles that either provided shallow scratches on the surface of the stalk ( 1 cm depth) or shallow piercing wounds ( 1 cm depth). Concurrent with surface wounding, a spore suspension of Colletotrichum graminicola (C. graminicola) conidia is sprayed onto wounded area or injected into shallow wounds. The total volume of spore suspension applied was in the range of 1-5 mL. […] Disease development was monitored in control treatments and disease evaluations were usually targeted when disease index rating reached approximately 5 on a 1-9 scale in control treatments. […] 10 stalks were assessed per plot. […] The stalks were split and the number of internodes with disease symptoms was counted starting at the internode above top node with brace roots (disease incidence rating). […]

Molecules are shown by their SMILES.

Turning to `CO/N=C(/C1=NOCCO1)c1ccccc1Oc1ncnc(Oc2ccccc2Cl)c1F` [Fluoxastrobin, fluoxastrobin], the “Efficacy against Colletotrichum graminicola (av. 2 isolates)” value in series [1] is given as 88 % Abbott. For the same compound, the “Efficacy against Fusarium verticillioides (av. of 3 isolates)” value in the series on Fusarium verticillioides is given as 3 % Abbott. For the same compound, the “Final Stand” value worked out at 4.79 in series [2] (25 g ai/100 kg seed); 4.67 in series [2] (50 g ai/100 kg seed); 4.63 in series [2] (100 g ai/100 kg seed); 4.83 in series [2] (200 g ai/100 kg seed); 4.58 in series [2] (300 g ai/100 kg seed); 4.99 in series [2] (400 g ai/100 kg seed). For the same compound, the “Yield Trial 1” value in the series with corn (30 g/100 Kg seed) is on record as 175.9 Bu/acre; in the series on corn (60 g/100 Kg seed) it was 179.1 Bu/acre. Also, the “Yield Trial 2” value came out at 175.9 Bu/acre in the series with corn (30 g/100 Kg seed), 177.6 Bu/acre with corn (60 g/100 Kg seed) and 176.3 Bu/acre with corn (90 g/100 Kg seed). Also, the Yield in series [3] (30 g/100 Kg seed) turned out to be 169.4 bu/A; in series [3] (60 g/100 Kg seed), 172 bu/A; in series [3] (90 g/100 Kg seed) it was 171.8 bu/A. Besides, the “Disease Severity (nodes ≧50% necrosis)” value in series [4] is given as 1.5 nodes ≧50% necrosis.
`OC(Cc1ccccc1Cl)(Cn1nc[nH]c1=S)C1(Cl)CC1` (centres unmarked) [Prothioconazole, prothioconazole]: in series [1], the “Efficacy against Colletotrichum graminicola (av. 2 isolates)” value is given as 51 % Abbott. Also, the “Efficacy against Fusarium verticillioides (av. of 3 isolates)” value in the series on Fusarium verticillioides came to 47 % Abbott. Besides, the “Final Stand” value is listed as 4.88 in series [2] (25 g ai/100 kg seed), 4.75 in series [2] (50 g ai/100 kg seed), 4.58 in series [2] (100 g ai/100 kg seed) and 4.92 in series [2] (200 g ai/100 kg seed). Besides, the results for the “Yield Trial 1” value in the series with corn (30 g/100 Kg seed) and in the series with corn (60 g/100 Kg seed) were 177.1 Bu/acre and 178.6 Bu/acre, respectively. Also, the “Yield Trial 2” value turned out to be 176.6 Bu/acre in the series with corn (30 g/100 Kg seed), 178.3 Bu/acre in the series with corn (60 g/100 Kg seed) and 175.2 Bu/acre in the series on corn (90 g/100 Kg seed). For the same compound, the Yield came to 172.4 bu/A in series [3] (30 g/100 Kg seed), 173.6 bu/A in series [3] (60 g/100 Kg seed) and 174 bu/A in series [3] (90 g/100 Kg seed). Also, in series [4], the “Disease Severity (nodes ≧50% necrosis)” value was 1.6 nodes ≧50% necrosis.
